Our source for the EC50 values is patent US20150307461A1, “ANTIVIRAL COMPOUNDS” (priority 2012, published 2015).

Common to all, as to assay: microbe, parasite or virus in culture
In assay [1] the test system is Pseudotyped HCV GT1a particles (HCVpp). It counts as cell-based, HCV GT1a H77 strain. The settings on record: Hepatitis C virus, 72 h, read-out: HCVpp GT-1a (EC50, μM).
Assay [2] deals with pseudotyped VSV G particles (VSVpp). Type of assay: cell-based. The settings on record: Vesicular stomatitis virus, 72 h, read-out: VSVpp (EC50, μM).
Assay [3] relates to Pseudotyped HCV GT1b particles (HCVpp). It counts as cell-based, HCV GT1b Con1 strain. As to conditions: Hepatitis C virus, 72 h, read-out: HCVpp GT-1b (EC50, μM).

Molecules are shown by their SMILES.

One may read the EC50 as the midpoint of the concentration-response curve. As for `Nc1nc(Nc2cc(Cl)c(Cc3nnn[nH]3)c(C(F)(F)F)c2)n[nH]1` [Compound I-90, N3-(4-((1H-tetrazol-5-yl)methyl)-3-chloro-5-(trifluoromethyl)phenyl)-1H-1,2,4-triazole-3,5-diamine], the EC50 in assay [1] stood at 24.4 µM; in assay [2] it was 100 µM.

In the case of `Nc1nc(Nc2cc(Cl)c(C(=O)Nc3ccccc3)c(Cl)c2)n[nH]1` [Compound I-64, 4-(5-Amino-1H-[1,2,4]triazol-3-ylamino)-2,6-dichloro-N-phenyl-benzamide], the EC50 in assay [3] is 4.09 µM; in assay [2], 8.6 µM.

As to `C=Cc1c(Cl)cc(Nc2n[nH]c(N)n2)cc1Cl` [Compound I-67, N^3-(3,5-Dichloro-4-vinyl-phenyl)-1H-[1,2,4]triazole-3,5-diamine], the EC50 in assay [3] was determined as 0.685 µM; in assay [2], 100 µM.

Regarding `CN(c1cc(Cl)c(Cl)c(Cl)c1)c1n[nH]c(N)n1` [Compound I-27, N*3*-Methyl-N*3*-(3,4,5-trichloro-phenyl)-1H-[1,2,4]triazole-3,5-diamine], the EC50 in assay [1] turned out to be 21.1 µM; in assay [2], 94.4 µM.

Turning to `N#Cc1c(F)cc(Nc2nc(N)n[nH]2)cc1F` [Compound I-69, 4-(5-Amino-2H-[1,2,4]triazol-3-ylamino)-2-difluoro-benzonitrile], the EC50 in assay [3] worked out at 0.561 µM; in assay [2], 100 µM.

As to `Nc1nc(Nc2cccc(C(=O)c3ccccc3)c2)n[nH]1` [Compound I-58, [3-(5-Amino-1H-[1,2,4]triazol-3-ylamino)-phenyl]-phenyl-methanone], in assay [1], the EC50 turned out to be 4.08 µM.

For `CS(=O)(=O)c1cccc(NC(=O)c2c(Cl)cc(Nc3n[nH]c(N)n3)cc2Cl)c1` [Compound I-66, 4-(5-Amino-1H-[1,2,4]triazol-3-ylamino)-2,6-dichloro-N-(3-methanesulfonyl-phenyl)-benzamide], the EC50 in assay [3] was determined as 4.99 µM; in assay [2], 100 µM.

Take `N#Cc1c(NN)cc(Nc2n[nH]c(N)n2)cc1S(F)(F)(F)(F)F` [Compound I-87, 4-(5-Amino-1H-[1,2,4]triazol-3-ylamino)-2-hydrazino-6-pentafluorosulfur-benzonitrile]: the EC50 was 1.65 µM in assay [3] and more than 10 µM in assay [2].

For the compound `Nc1nc(Nc2cccc(C(F)(F)F)c2F)n[nH]1` [Compound I-53, N^3-(2-Fluoro-3-trifluoromethyl-phenyl)-1H-[1,2,4]triazole-3,5-diamine], the EC50 in assay [1] and in assay [2] was 100 µM throughout.

With `CNC(=O)Nc1ccc(Nc2n[nH]c(N)n2)cc1Cl` [Compound I-62, 1-[4-(5-Amino-1H-[1,2,4]triazol-3-ylamino)-2-chloro-phenyl]-3-methyl-urea], the EC50 in assay [3] and in assay [2] was 100 µM throughout.

Take `Nc1nc(N(Cc2ccccc2)c2cc(Cl)cc(Cl)c2)n[nH]1` [Compound I-29, N*3*-Benzyl-N*3*-(3,5-dichloro-phenyl)-1H-[1,2,4]triazole-3,5-diamine]: the half-maximal effective concentration (EC50) was 6.49 µM in assay [1] and 7.5 µM in assay [2].

For the compound `Cc1ccc(Nc2n[nH]c(N)n2)cc1Cl` [Compound I-76, N^3-(3-Chloro-4-methyl-phenyl)-1H-[1,2,4]triazole-3,5-diamine], the EC50 came to 0.791 µM in assay [1] and 100 µM in assay [2].

In the case of `Nc1nc(Nc2cc(Cl)c(C(=O)N3CCCC3)c(Cl)c2)n[nH]1` [Compound I-65, [4-(5-Amino-1H-[1,2,4]triazol-3-ylamino)-2,6-dichloro-N-phenyl]-pyrrolidin-1-yl-methanone], the EC50 was determined as 3.67 µM in assay [3] and 100 µM in assay [2].

For `N#CCN(c1cc(Cl)cc(Cl)c1)c1n[nH]c(N)n1` [Compound I-30, [(5-Amino-1H-[1,2,4]triazol-3-yl)-(3,5-dichloro-phenyl)-amino]-acetonitrile], the EC50 in assay [1] amounted to 14.5 µM; in assay [2], 100 µM.

`N#CC1(c2cccc(Nc3n[nH]c(N)n3)c2)CC1` [Compound I-59, 1-[3-(5-Amino-1H-[1,2,4]triazol-3-ylamino)-phenyl]-cyclopropanecarbonitrile]: the EC50 stood at 1.46 µM in assay [1] and 100 µM in assay [2].

As to `Nc1n[nH]c(Nc2cc(F)c(Br)c(F)c2)n1` [Compound I-46, N^5-(4-Bromo-3,5-difluoro-phenyl)-1H-[1,2,4]triazole-3,5-diamine], the values for the EC50 in assay [3] and in assay [2] were 1.18 µM and 100 µM, respectively.

For `Nc1nc(Nc2ccc(S(F)(F)(F)(F)F)cc2)n[nH]1` [Compound I-75, N*3*-(4-pentafluorosulfur-phenyl)-1H-[1,2,4]triazole-3,5-diamine], the results for the EC50 in assay [1] and in assay [2] were 14.3 µM and 100 µM, respectively.

Consider `COC(=O)c1c(Cl)cc(Nc2n[nH]c(N)n2)cc1Cl` [Compound I-63, 4-(5-Amino-1H-[1,2,4]triazol-3-ylamino)-2,6-dichloro-benzoic acid methyl ester], for which the half-maximal effective concentration (EC50) in assay [3] came to 1.74 µM; in assay [2], 100 µM.

Consider `CS(=O)(=O)Nc1cccc(Nc2n[nH]c(N)n2)c1` [Compound I-33, N-[3-(5-Amino-1H-[1,2,4]triazol-3-ylamino)-phenyl]-methanesulfonamide], for which the EC50 in assay [1] and in assay [2] was 100 µM each time.

Regarding `N#Cc1c(F)cc(Nc2nc(N)n[nH]2)cc1C(F)(F)F` [Compound I-68, 4-(5-Amino-2H-[1,2,4]triazol-3-ylamino)-2-fluoro-6-trifluoromethyl-benzonitrile], the EC50 stood at 0.161 µM in assay [3] and 43.3 µM in assay [2].

On to `Nc1nc(Nc2cccc(S(F)(F)(F)(F)F)c2)n(C2CCCCC2)n1` [Compound I-72, Cyclohexyl-N*5*-(3-pentafluorosulfur-phenyl)-1H-[1,2,4]triazole-3,5-diamine], for which the values for the EC50 in assay [1] and in assay [2] were 36.1 µM and 68.3 µM, respectively.

In the case of `Nc1nc(Nc2cc(F)cc(Cl)c2)n[nH]1` [Compound I-61, N^3-(3-Chloro-5-fluoro-phenyl)-1H-[1,2,4]triazole-3,5-diamine], the EC50 in assay [3] was 0.331 µM; in assay [2] it was more than 10 µM.

For `N#Cc1ccc(Nc2n[nH]c(N)n2)cc1S(F)(F)(F)(F)F` [Compound I-85, 4-(5-Amino-1H-[1,2,4]triazol-3-ylamino)-2-pentafluorosulfur-benzonitrile], the values for the EC50 in assay [3] and in assay [2] were 0.287 µM and more than 10 µM, respectively.

For `Nc1nc(Nc2cc(F)c(Br)c(Cl)c2)n[nH]1` [Compound I-5, N^3-(4-Bromo-3-chloro-5-fluoro-phenyl)-1H-[1,2,4]triazole-3,5-diamine], the EC50 came out at 0.536 µM in assay [3] and 45.5 µM in assay [2].

Take `Nc1nc(Nc2ccc(Br)c(Cl)c2)n[nH]1` [Compound I-40, N*3*-(4-Bromo-3-chloro-phenyl)-1H-[1,2,4]triazole-3,5-diamine]: the concentration for a half-maximal effect (EC50) came out at 3.29 µM in assay [3] and 45.7 µM in assay [2].

With `Nc1nc(Nc2cccc(Cl)c2Cl)n[nH]1` [Compound I-49, N^3-(2,3-Dichloro-phenyl)-1H-[1,2,4]triazole-3,5-diamine], the EC50 in assay [1] and in assay [2] was 100 µM in each case.

As to `N#Cc1ccc(Nc2n[nH]c(N)n2)cc1` [Compound I-47, 4-(5-Amino-1H-[1,2,4]triazol-3-ylamino)-benzonitrile], the results for the EC50 in assay [1] and in assay [2] were 19.6 µM and 100 µM, respectively.

For `Nc1nc(Nc2ccc(Br)c(S(F)(F)(F)(F)F)c2)n[nH]1` [Compound I-81, N*3*-(4-Bromo-3-pentafluorosulfur-phenyl)-1H-[1,2,4]triazole-3,5-diamine], the EC50 is 0.527 µM in assay [3] and 34 µM in assay [2].

Take `N#Cc1c(F)cc(Nc2n[nH]c(N)n2)cc1S(F)(F)(F)(F)F` [Compound I-86, 4-(5-Amino-1H-[1,2,4]triazol-3-ylamino)-2-fluoro-6-pentafluorosulfur-benzonitrile]: the EC50 in assay [3] was 0.104 µM; in assay [2], more than 10 µM.

As to `Cn1nc(N)nc1Nc1cccc(S(F)(F)(F)(F)F)c1` [Compound I-71, 1-Methyl-N*5*-(3-pentafluorosulfur-phenyl)-1H-[1,2,4]triazole-3,5-diamine], the EC50 in assay [1] and in assay [2] was 100 µM throughout.

`Nc1nc(Nc2cc(Br)cc(S(F)(F)(F)(F)F)c2)n[nH]1` [Compound I-82, N*3*-(3-Bromo-5-pentafluorosulfur-phenyl)-1H-[1,2,4]triazole-3,5-diamine]: the EC50 in assay [3] is 0.918 µM; in assay [2], 57.5 µM.

In the case of `Nc1nc(Nc2cccc(CC(F)(F)F)c2)n[nH]1` [Compound I-55, N^3-[3-(2,2,2-Trifluoro-ethyl)-phenyl]-1H-[1,2,4]triazole-3,5-diamine], the EC50 in assay [1] came to 10.3 µM; in assay [2] it was 100 µM.

With `CN(C)C(=O)c1ccc(Nc2n[nH]c(N)n2)cc1Cl` [Compound I-78, 4-(5-Amino-1H-[1,2,4]triazol-3-ylamino)-2-chloro-N,N-dimethyl-benzamide], the figures for the EC50 in assay [1] and in assay [2] were 32.1 µM and 100 µM, respectively.

With `Cn1nc(N)nc1Nc1cc(F)cc(S(F)(F)(F)(F)F)c1` [Compound I-74, N*5*-(3-Fluoro-5-pentafluorosulfur-phenyl)-1-methyl-1H-[1,2,4]triazole-3,5-diamine], the EC50 in assay [1] amounted to 34.3 µM; in assay [2], 100 µM.

As to `N#Cc1ccc(Nc2n[nH]c(N)n2)cc1S(=O)(=O)C(F)(F)F` [Compound I-34, 4-(5-Amino-1H-[1,2,4]triazol-3-ylamino)-2-trifluoromethanesulfonyl-benzonitrile], the EC50 in assay [1] is 0.2 µM; in assay [2] it was more than 1 µM.

As for `CN(c1cc(Cl)cc(Cl)c1)c1n[nH]c(N)n1` [Compound I-28, N*3*-(3,5-Dichloro-phenyl)-N*3*-methyl-1H-[1,2,4]triazole-3,5-diamine], the results for the EC50 in assay [1] and in assay [2] were 82.8 µM and 100 µM, respectively.

As for `Nc1nc(Nc2cccc(C(=O)O)c2)n[nH]1` [Compound I-31, 3-(5-Amino-1H-[1,2,4]triazol-3-ylamino)-benzoic acid], the EC50 in assay [1] and in assay [2] was 100 µM each time.
